The record followed here is patent US6977251B2, “5-androstene-3β, 17α diol as an inhibitor of tumor growth” (priority 1997, dated 2005).

Data set [1] concerns ZR-75-1 cells. Briefly: cells. Particulars: for cell proliferation (3H-thymidine): six day period. How it is done:
The ZR-75-1 cell line (passage 89) was obtained from the American Type Culture Collection (Rockville, Md.). The cells were cultured in RPMI-1640 medium containing 10% heat-inactivated fetal calf serum, 200 μM L-glutamine, […] HEPES, 1.5 U/ml penicillin, and 1.5 μg/ml streptomycin in 5% CO2 at 37° C. The cells were passaged twice weekly.
(§1) Cells were first seeded at initial density of 1×10^5 cells per ml in quadruplicates in 24 multi-well flat bottom plates (Costar). Cells were then allowed to adhere and grow in phenol red-free […] media supplemented with 10% heat-inactivated fetal calf serum (FCS), 200 μM L-glutamine, 10 mM HEPES, 2.5 U/ml penicillin and 2.5 μg/ml streptomycin in 5% CO2 at 37° C. After 48 hours, four wells were sacrificed and counted to determine plating efficiency. In the remaining wells, medium was removed by aspiration and cells in each well were exposed to the media containing the specified steroid. The controls containing only medium or medium with vehicle were also prepared. In all samples, medium was changed every 48 hours. At the pre-established time-point. Cells were removed by trypsinization and washed. Cell number and viability were determined by trypan blue exclusion using a hemocytometer. Parallel cultures were also run to determine cell proliferation.
(§2) For cell proliferation assays, cell suspensions were prepared by trypsinization of cells from cultures prepared in accord with methods described above. Cell viability was determined by trypan blue exclusion. The cells were then seeded in flat-bottom 96-well microtiter plates at a density of 2×10^3 cells/well and were allowed to rest for 48 hours in order to adhere. Non-adherent dead cells were removed by aspiration. Cells were then grown in media without phenol red. Some of the media contained supplements as indicated above. […] The cells were then grown for six days. Media was changed on the samples every 48 hours. On day 6, cells were pulsed with 1 μCi[…]-thymidine for the last 6 hours of incubation before harvesting onto glass filter using a HPD cell harvester (Cambridge Technology, Watertown, Mass.) and counted on a KLB scintillation counter.
ZR-75-1 cells (2×10^3) were treated as described above over a six day period with differing concentrations of αAED or with vehicle-only cultures. The medium was changed every 48 hours. Cells were pulsed with ^3H-thymidine for the last six hours of incubation.

The subject of data set [2] is ZR-75-1 cells. As to conditions: trypan blue exclusion. How it is done: as §1
For a further data set, the system named is P388D1 cells. Particulars: RU486 at 0.5 μM and 1.0 μM. The procedure:
as §2

For a further data set, the system named is RAW 264.7. How it is done: as §2
Effects of αAED at doses of 50 ηM and 100 ηM doses on murine macrophage myeloma cells (RAW 264.7, obtained from the American Type Culture Collection) was studied.

pIC50: −log10 of the molar value. Read-outs that look alike come from different tables or passages of the source.

Consider `C[C@]12CC[C@H]3[C@@H](CC=C4C[C@@H](O)CC[C@@]43C)[C@@H]1CC[C@H]2O` [αAED, 5-androstene 3β,17α diol], for which the “cell proliferation in combination with RU486” value is “synergistic action to decrease proliferation of cells” in the data set on ZR-75-1 cells [1] (0.1 μl concentrations of αAED with 0.5 μM RU486) and “synergism was shown to be even greater” in the data set on ZR-75-1 cells [1] (αAED with RU486 at 1 μM). Besides, the “cell proliferation (3H-thymidine)” value is given as “increasing proliferation” in the data set on ZR-75-1 cells [1] (6.25 ηM), “decreasing cell proliferation” with ZR-75-1 cells [1] (12.5 ηM) and “marked decrease” in the data set on ZR-75-1 cells [1] (50 ηM). Besides, the pIC50 in the data set with ZR-75-1 cells [1] (Homo sapiens, ZR-75-1, read-out: half-maximal dose of anti-proliferative effect) was 7.30. Besides, the “maximal dose of anti-proliferative effect” value in the data set on ZR-75-1 cells [1] (ZR-75-1 cells, dose and time-dependent) is recorded as 100 ηM. Further, the “cell proliferation in the presence of estradiol” value in the data set on ZR-75-1 cells [1] (higher doses of αAED, 1 ηM estradiol, 6 day period) is listed as “suppressed proliferation even in the presence of estradiol”. Also, in the data set with ZR-75-1 cells [1] (tritiated thymidine incorporation, in vitro), the “concentration at which growth of ZR-75-1 cells was significantly inhibited” value is given as ≥ 12.5 ηM. Further, in the data set on ZR-75-1 cells [1] (varied αAED, βAED constant at 2.5 ηM, six days), the “cell proliferation in the presence of βAED” value is recorded as “decreased proliferation at all concentrations”. The “cytotoxicity (cell count and viability)” value with ZR-75-1 cells [2] was “not toxic to the cells”. Moreover, in the data set on P388D1 cells, the “effect on growth of P388D1 cells in combination with RU486” value is reported as “increased effectiveness over use of one agent”. Moreover, the “proliferation of RAW 264.7 cells” value in the data set with RAW 264.7 (50 ηM) and in the data set with RAW 264.7 (100 ηM) was “significant inhibition of proliferation” in each case.

As to `C[C@]12CC[C@H]3[C@@H](CC=C4C[C@@H](O)CC[C@@]43C)[C@@H]1CC[C@@H]2O` [βAED, 5-androstene 3β,17β diol, reference compound], the “antiproliferative effect on growth of ZR-75-1 cells” value with ZR-75-1 cells [1] (alone at 100 ηM) is “did not have any antiproliferative effect”.
